# “Also recorded” adds a separate entry of the source. Ends that are not written are not given here.
# How the values were obtained:
# [1] = molecular target: T1, Amylin Receptor (AMY-R) (Homo sapiens, UniProt P30988); experiment: PathHunter β-arrestin recruitment dose response, amylin receptor activation (CHO-K1 CALCR RAMP3 cells); type: cell-based; conditions: FIGS. 2A-2B
# T1 construct: host or cells: CHO-K1
# T1 sequence (P30988 25-474): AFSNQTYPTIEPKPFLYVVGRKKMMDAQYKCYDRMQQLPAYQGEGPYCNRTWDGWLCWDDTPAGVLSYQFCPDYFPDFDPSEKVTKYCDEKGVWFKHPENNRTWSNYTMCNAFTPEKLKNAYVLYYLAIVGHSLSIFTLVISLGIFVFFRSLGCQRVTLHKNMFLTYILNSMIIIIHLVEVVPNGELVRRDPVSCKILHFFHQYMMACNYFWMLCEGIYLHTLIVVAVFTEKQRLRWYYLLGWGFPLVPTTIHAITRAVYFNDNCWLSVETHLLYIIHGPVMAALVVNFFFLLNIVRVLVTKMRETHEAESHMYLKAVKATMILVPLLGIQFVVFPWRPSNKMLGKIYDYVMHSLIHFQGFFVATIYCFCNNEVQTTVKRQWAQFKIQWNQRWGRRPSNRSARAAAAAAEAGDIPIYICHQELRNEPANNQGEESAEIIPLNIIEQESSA
# T1 sequence (O60896 24-148 partner): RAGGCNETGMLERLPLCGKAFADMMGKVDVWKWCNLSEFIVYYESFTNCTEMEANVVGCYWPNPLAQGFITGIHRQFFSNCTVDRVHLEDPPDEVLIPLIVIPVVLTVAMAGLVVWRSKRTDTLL
# Experimental: FIGS. 2A-2B: β-arrestin recruitment dose response by KBP-046-KBP-054 (FIG. 2A) and KBP-058-KBP-063 (FIG. 2B) as a function of amylin receptor activation. Dose range is 1 μM to 15 μM and data is shown as fold of vehicle. Screening was conducted in CHO-K1 CALCR RAMP3 Pathhunter cells from DiscoveRx.
# (§1) In the following examples, the following materials and methods were employed. The following cell lines expressing the calcitonin, amylin and CGRP receptors were purchased and cultured according to the manufacturer's instructions. • 1. Calcitonin Receptor (CTR): U2OS-CALCR from DiscoveRx (Cat. No.: 93-0566C3). • 2. Amylin Receptor (AMY-R): CHO-K1 CALCR+RAMP3 from DiscoveRx (Cat. No.: 93-0268C2). In independent bioassays, CTR and AMY-R cells were treated with for the indicated timepoints with increasing doses of KBPs identified in Tables 1A and 1B (1000, 250, 62.5, 15.6, 3.9, 1.0, 0.24, 0.06, 0.02 nM and vehicle).
# (§2) PathHunter β-Arrestin GPCR assays are whole cell, functional assays that directly measure the ability of a ligand to activate a GPCR by detecting the interaction of β-Arrestin with the activated GPCR. Because β-arrestin recruitment is independent of G-protein signaling, these assays offer a powerful and universal screening and profiling platform that can be used for virtually any Gi-, Gs, or Gq-coupled receptor.
# (§3) In this system, the GPCR is fused in frame with the small enzyme fragment ProLink™ and co-expressed in cells stably expressing a fusion protein of β-Arrestin and the larger, N-terminal deletion mutant of β-gal (called enzyme acceptor or EA). Activation of the GPCR stimulates binding of β-Arrestin to the ProLink-tagged GPCR and forces complementation of the two enzyme fragments, resulting in the formation of an active β-gal enzyme. This interaction leads to an increase in enzyme activity that can be measured using chemiluminescent PathHunter® Detection Reagents.
# (§4) The assay was performed in white 384 well plates (Greiner Bio-One, 784080). Cells were seeded 2500 cells per well in 10 μL cell-type specific medium the day prior to the experiment. To quantify the GPCR-mediated β-arrestin recruitment the Pathhunter™ Detection Kit (93-0001, DiscoverX) was used and assay performed accordingly to the manufacturer's instructions. Furthermore, data from the Pathhunter™ β-arrestin recruitment assay was normalized to an internal standard to improve the distinction between top KBP performers and non-performers.
# [2] = molecular target: T2, Calcitonin Receptor (CTR) (Homo sapiens, UniProt P30988); experiment: Prolonged β-arrestin recruitment, calcitonin receptor activation over time (U2OS CALCR cells); type: cell-based; conditions: single dose of 100 nM at t=0, read up to 72 hours, FIGS. 3A-3B
# T2 construct: host or cells: U2OS
# T2 sequence (P30988 25-474): T1 sequence (P30988 25-474)
# Experimental: FIGS. 3A-3B: Prolonged β-arrestin recruitment by KBP-046-KBP-054 (FIG. 3A) and KBP-058-KBP-063 (FIG. 3B) and human calcitonin as a function of calcitonin receptor activation. Single dose of 100 nM at t=0 and after 3, 6, 24, and 72 hours after initial treatment, β-arrestin recruitment was assessed to investigate each ligands protracted potential. Data is shown as fold of vehicle. Screening was conducted in U2OS CALCR Pathhunter cells from DiscoveRx.
# as §1, §2, §3, §4
# Results are seen in FIGS. 1A-1B, 2A-2B and 3A-3B. […] This was done using the calcitonin receptor (CTR): U2OS-CALCR from DiscoveRx (Cat. No.: 93-0566C3) cell line, and as opposed to the classical three hour output, β-arrestin accumulation was conducted over 24, 48 and 72 hour and then analyzed.
# [3] = system: Sprague Dawley Rats; experiment: Food intake in healthy Sprague Dawley rats after single s.c. dose; type: in vivo, rat; conditions: single s.c. dose 2.5 μg/kg; for Food Intake ΔFOOD Sustained Attenuation Hours: SD rats fasted overnight, food intake monitored 0-4 h and 4-24 h; for reduction in food intake within the 4 hour interval / time to which the reduction in food intake was maintained (sustained effect) / size of reduction in food intake compared with the other tested peptides: SD rats; for reduction in food intake within the 4 hour interval: 0-4 hours; for time to which the reduction in food intake was maintained (sustained effect): intervals 0-4 and 4-24 hours; for size of reduction in food intake compared with the other tested peptides: FIG. 4A (KBP-046 to -054) and FIG. 4B (KBP-058 to -063)
# Experimental: FIGS. 4A-43: Protracted attenuation of food intake in SD rats by KBP-046-KBP-054 (FIG. 4A) and KBP-058-KBP-063 (FIG. 4B). After single s.c dose of 2.5 μg/kg of KBP, food intake was monitored in intervals of 0-4 h and 4-24 h to assess the protracted action of individual KBPs. Individual rats were single caged, n=4 in each group.
# Rats were single caged four days prior to individual tests. They were randomized by weight into seven groups (Vehicle (0.9% NaCl), KBPs (doses: 2.5 μg/kg). They were fasted overnight and then treated with a single dose of peptide or vehicle in the morning using subcutaneous administration. The food intake was monitored in the following intervals (0-4 hours and 4-24 hours).
"amylin receptor activation (β-arrestin recruitment, fold of vehicle) [1]","protracted calcitonin receptor activation (prolonged β-arrestin recruitment, fold of vehicle) [2]",Substance,Food Intake ΔFOOD Sustained Attenuation Hours [3],reduction in food intake within the 4 hour interval [3],time to which the reduction in food intake was maintained (sustained effect) [3],size of reduction in food intake compared with the other tested peptides [3]
potent amylin agonists,superior,"CGNLSTCMLGRLSQDLNKFHTFPKTDVGANAP (not fully specified; ends and bridges not checked) [KBP-047, Calcitonin mimetic peptide]",24 h,reduction in food intake,24 h,largest reduction; also recorded: far greater reduction in food intake
potent amylin agonists,superior,"CGNLSTCMLGRLSQDLNKFHTFPQTDVGANAP (not fully specified; ends and bridges not checked) [KBP-063, Calcitonin mimetic peptide]",24 h,reduction in food intake,24 h,far greater reduction in food intake
potent amylin agonists,superior,"CGNLSTCMLGRLTQDFHKLHTFPKTDVGANAP (not fully specified; ends and bridges not checked) [KBP-058, Calcitonin mimetic peptide]",24 h,reduction in food intake,24 h,far greater reduction in food intake
potent amylin agonists,superior,"CGNLSTCMLGRLTQDLHKLQTFPKTDVGANAP (not fully specified; ends and bridges not checked) [KBP-053, Calcitonin mimetic peptide]",24 h,reduction in food intake,24 h,far greater reduction in food intake
potent amylin agonists,superior,"CGNLSTCMLGRLTQDLNKFHTFPKTDVGANAP (not fully specified; ends and bridges not checked) [KBP-062, Calcitonin mimetic peptide]",24 h,reduction in food intake,24 h,largest reduction; also recorded: top performance in the screening; also recorded: far greater reduction in food intake
,,"KBP-046: Calcitonin mimetic peptide, Table 1 residues CGNLSTCMLGTYTQDFHRLQTYPKTDVGANAP (not fully specified; ends and bridges not checked)",4 h,,,
,,"KBP-048: Calcitonin mimetic peptide, Table 1 residues CGNLSTCMLGTYTQDFNKFNTFPKTDVGANAP",4 h,,,
,,"KBP-050: Calcitonin mimetic peptide, Table 1 residues CGNLSTCMLGRLSQDLHRLQTYPKTAIGVGAP (not fully specified; ends and bridges not checked)",4 h,,,
,,"KBP-051: Calcitonin mimetic peptide, Table 1 residues CSNLSTCMLGRLSQDLHRLQTYPKTAIGVGAP (not fully specified; ends and bridges not checked)",4 h,,,
,,"KBP-052: Calcitonin mimetic peptide, Table 1 residues CSNLSTCMLGTYTQDFHRLQTYPKTAIGVGAP (not fully specified; ends and bridges not checked)",4 h,,,
,,"KBP-054: Calcitonin mimetic peptide, Table 1 residues CGNLST, positions 7-8 blank, LGRYTQDFHKPQTFPKTDVGANAP",4 h,,,
,,"KBP-059: Calcitonin mimetic peptide, Table 1 residues CGNLSTCMLGTYTQDLHKLHTFPKTDVGANAP (not fully specified; ends and bridges not checked)",4 h,,,
,,"KBP-060: Calcitonin mimetic peptide, Table 1 residues CGNLSTCMLGTYTQDFHRLQTFPQTDVGANAP",4 h,,,
,,"KBP-061: Calcitonin mimetic peptide, Table 1 residues CGNLSTCMLGTYTQDFHRLQTFPQTDVGANAP (printed identical to KBP-060) (not fully specified; ends and bridges not checked)",4 h,,,

# Reference: patent US20200199190A1, “Calcitonin Mimetics for Treating Diseases and Disorders” (KeyBioscience AG, priority 2017, published 2020)
